Tests used:
Aβ [1] = test system: Aβ; set-up: method as in PMID 14994335; conditions: screen of five polyphenols; cited from earlier work
[2] = test system: brain serotonin concentration; set-up: method as in PMID 23009399; conditions: via inhibition of Maoa; cited from earlier work
striatum DA and NE = test system: striatum DA and NE; set-up: method as in PMID 25756794; conditions: fed for 20 days; with elevated Th expression in SN; cited from earlier work
Aβ1–42 = target: T1, Aβ1–42 (Homo sapiens, UniProt P05067); test: ThT assay (SensoLyte Thioflavin T β-Amyloid (1–42) Aggregation Kit); type: biochemical; conditions: 100 μM monoamine; for relative ThT fluorescence intensity (Aβ aggregation): 45 μM Aβ1–42, 37 °C; for time at which Aβ aggregation was significantly (p < 0.05) inhibited: 45 μM Aβ1–42, Dunnett's test
T1 construct: Dissolved lyophilized Aβ1–42 (PEPTIDE INSTITUTE, INC., Osaka, Japan); purchased PEPTIDE INSTITUTE, INC., Osaka, Japan
Method: Dissolved lyophilized Aβ1–42 (PEPTIDE INSTITUTE, INC., Osaka, Japan) in 2 mM NaOH produced a peptide concentration of 0.5 mg/mL, which was then subjected to sonication by a bath-type sonicator for 1 min prior to re-lyophilizing the resulting solution. The NaOH-treated Aβ1–42 lyophilizate was dissolved in 500 μL distilled water and sonicated for 1 min. We added 500 μL of 20 mM phosphate buffer and centrifuged the resulting solution for 10 min at 16,000 × g. The supernatant was used as the Aβ1–42 solution. Aggregation of Aβ1–42 was measured using the SensoLyte® Thioflavin T β-Amyloid (1–42) Aggregation Kit (ANASPEC Inc., Fremont, CA.) according to the manufacturer’s protocol. To measure the Aβ1–42 fibril formation in the 96-well black microplates, 10 μL of 2 mM ThT and 5 μL of each monoamine solution (2 mM) were added into each well and mixed with 85 μL Aβ1–42 solution. The final concentration of Aβ1–42 was 45 μM and that of each monoamine concentration was 100 μM. The ThT fluorescence signal was monitored with Ex/Em = 440 nm/484 nm using Varioskan LUX (Thermo Fisher Scientific) at 37 °C at intervals of 5 min and 10 min for 0–125 min and 140–175 min, respectively.
All samples were tested in triplicate, and data were shown as relative fluorescence units by subtracting the fluorescence level of the blank from the actual value.

Aβ [3] = test system: Aβ; set-up: method as in PMID 15059976, PMID 23913715; conditions: cited from earlier work
[4] = orally ingested polyphenols; cited from earlier work

T1 sequence (P05067 672-713): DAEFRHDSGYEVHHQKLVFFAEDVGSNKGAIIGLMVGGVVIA

Row | Structure (SMILES) | relative ThT fluorescence intensity (Aβ aggregation) (Aβ1–42) | time at which Aβ aggregation was significantly (p < 0.05) inhibited (Aβ1–42) | further results
1 | COc1cc(/C=C/C(=O)O)ccc1O [FA, ferulic acid] | – | – | Aβ aggregation in vitro (Aβ [1]): significantly inhibited
2 | O=c1c(O)c(-c2ccc(O)c(O)c2)oc2cc(O)cc(O)c12 [quercetin] | – | – | brain serotonin concentration [2]: suppressed a decrease
3 | Cn1cnc2c1c(=O)[nH]c(=O)n2C [theobromine] | – | – | DA and NE concentrations in the striatum (striatum DA and NE): significant increases
4 | N[C@@H](Cc1ccc(O)c(O)c1)C(=O)O [L-DOPA, levodopa] | lower than that in their absence | 20 to 160 min | Aβ aggregation (Aβ [3]): inhibit
5 | O=C(O)Cc1ccc(O)c(O)c1 [DOPAC, 3,4-dihydroxyphenylacetic acid] | lower than that in their absence | – | –
6 | COc1cc(/C=C/C(=O)CC(=O)/C=C/c2ccc(O)c(OC)c2)ccc1O [Cur, curcumin, reference compound] | – | – | intestinal permeability [4]: approximately 0.1%; Aβ aggregation in vitro (Aβ [1]): significantly inhibited
7 | NCCc1ccc(O)c(O)c1 [DA, dopamine] | lower than that in their absence | 15 to 160 min | Aβ aggregation (Aβ [3]): inhibit
8 | NC[C@H](O)c1ccc(O)c(O)c1 [NE, norepinephrine] | lower than that in their absence | 20 to 160 min | –

From PMC6581955, “Rosmarinic acid suppresses Alzheimer’s disease development by reducing amyloid β aggregation by increasing monoamine secretion” (Scientific Reports, 2019)
